Laboratory results reported in US8128914B2, “Topical compositions containing CIS-6-nonenol and its derivatives and methods for treating skin” (Avon Products, Inc, priority 2008, dated 2012).

Tested on: Metallothionein 2A (MT2A) mRNA
Experiment: Stimulation of Metallothioneins: MT2A mRNA in normal human dermal fibroblasts (QuantiGene multiplex branched DNA assay)
Assay type: cell-based
Details: 24 hours, vs ethanol vehicle control, p<0.05
Description: Normal human dermal fibroblasts were cultured in 96 well tissue culture treated plates, containing appropriate culture medium. Stock solution of cis-6 nonenol was made in ethanol. Cells were treated with test material or ethanol vehicle control diluted in growth medium for 24 hours in a humidified 37° C. incubator with 10% CO2. After incubation, growth medium from each plate was removed and 100 μl of lysis buffer was added to the wells and placed in 37° C. incubator with 10% CO2 for 30 minutes. At the end of incubation, the cells were collected in freezer plates and placed in −80° C. freezer, until analysis. Changes in mRNA for Metallothionein 2A (MT2A) after treatment were analysed using Panomics' QuantiGene® multiplex assay that employs a branched DNA technology. Percent increase in mRNA for MT2A was calculated by comparing the test results to that of the vehicle control. […] All results reported are statistically significant at p<0.05.

CC/C=C\CCCCCO [Cis-6-nonenol, cis-6-nonenol]
stimulation in mRNA levels for Metallothionein 2A (0.001% cis-6-nonenol): 97% | stimulation in mRNA levels for Metallothionein 2A (0.01% cis-6-nonenol): 96%
